Laboratory results reported in patent US20240285631A1, “METHODS OF TREATING VASCULAR MALFORMATIONS” (priority 2023, published 2024).
Entries after “also recorded” stand apart in the source; their conditions may differ.

Experiments:
[1] = test system: vascular anomalies in lungs and intestinal tracts of anti-BMP9/10-treated pups; test: Blue latex dye vascular perfusion of lungs and duodenum in BMP9/10 Abs-treated pups; type: in vivo, mouse; details: P7, BMP9/10 Abs + CDK4/6i
Source text: Vascular perfusion assessed using blue latex dye in lungs (FIGS. 10C-D), duodenum (FIGS. 10E-F) and brain (FIGS. 10G-H) from control, BMP9/10 Abs-treated, BMP9/10 Abs- and CDK4/6i-treated P7 animals. Lung samples have been clarified. Quantifications of intrapulmonary artery diameter (FIG. 10D) and intestinal capillary diameter (FIG. 10F). Red arrows indicate intestinal capillaries (N=3 to 7 animals/group. Data are mean±SEM, one-way ANOVA with Holm-Šidàk's multiple comparison test, **p≤0.01, *p≤0.05, ns p>0.05). […] We then analyzed the effects of BMP9/10 antibodies and CDK4/6i treatment on lungs, brains, and intestinal tracts, which are commonly affected by vascular malformations in HHT patients. To visualize vascular anomalies in these tissues, we performed intracardiac injections of blue latex silicon dye in P7 control, and anti-BMP9/10-treated pups, with or without CDK4/6i treatment following the dosing protocol as shown in FIG. 2A. […] P7 pups were deeply anesthetized with isoflurane using a nose cone and a thoracotomy was performed to expose the heart. For brain and gastrointestinal vasculature perfusions, the right atrium was cut and an insulin syringe (27 G) pre-filled with 1 ml of blue latex (VWR 470024-612) was inserted in the apex of the left ventricle to perfuse approximately 600 ml of latex. […]

[2] = test system: retinal arteries of anti-BMP9/10-treated animals; test: Arteriovenous identity immunostaining (JAGGED1, aSMA, ENDOMUCIN) of retinal flat-mounts, BMP9/10 Abs model; type: in vivo, mouse; details: P7
Source text: FIG. 12A illustrates the timeline used for BMP9/10 Abs and CDK4/6i treatments in C57bl/6 pups. FIGS. 12B-F JAGGED1 (green) and IB4 (white) in (FIG. 12B), aSMA (green) and IB4 (white) staining in (FIG. 12D) and ENDOMUCIN (green) and IB4 (white) in (FIG. 12F) of retinal flat-mounts from control, BMP9/10 Abs-treated, BMP9/10 Abs- and CDK4/6i-treated P7 C57bl/6 animals. (A: artery; V: vein; white arrow heads: AVMs). Quantification of JAGGED1 fluorescence intensity in retinal arterial ECs (FIG. 12C), of aSMA arterial coverage (FIG. 12E) and ENDOMUCIN in retinal arteries (FIG. 12G) (N=4 animals/group, 10 to 14 region of interest analyzed/group. Data are mean±SEM, one-way ANOVA with Holm-Sidak's multiple comparison test, ns p>0.05; ***p<0.01). Scale bars: […].
Finally, we assessed the effects of Palbociclib treatment on arteriovenous identity in anti-BMP9/10-treated animals following the dosing protocol shown in FIG. 12A. […] Finally, ENDOMUCIN, which is enriched in veins and capillaries in control retinas, was ectopically expressed in arteries and AV shunts in the retinal vasculature of anti-BMP9/10-treated animals, compared to controls (FIGS. 12F and 12G).
Eyes from P7 pups were pre-fixed in 4% PFA for 20 min at room temperature (RT). The retinas were dissected out and permeabilized for 30 min at RT in 0.5% Triton X-100 and then incubated with antibodies in retina buffer (1% FBS, 3% BSA and 0.5% Triton X-100 in PBS1x) overnight at 4° C. Retinas were washed with PBS1X and incubated with secondary antibodies in retina buffer for 2 h at RT. Retinas were washed with PBS1X, mounted with DAKO mounting medium (DAKO) and imaged using confocal microscopy (LEICA SP8 and LASX software). Quantification of vascular progression, density, AVM numbers and vessel diameters in the retinal vasculature were performed with Image J software.

[3] = test system: retinal ECs of Alk1EC^iKO-Fucci2 pups; test: Endothelial cell cycle state in Alk1EC^iKO-Fucci2 pups; type: in vivo, mouse; details: Alk1EC^iKO + CDK4/6i
Source text: All animal protocols and procedures were approved by the University of Virginia Animal Care and Use Committee and complied with all ethical regulations. Cdh5Cre^ERT21Rha^43 and Alk1^flox/flox were gifted from Drs. Ralf Adams and Paul Oh, respectively. R26p-Fucci2 (Fucci2) (Accession #CDB0203T)^44 and C57bl/6 mice were purchased from Riken and Jax, respectively. Cdh5Cre^ERT2 mice were crossed with Alk1^flox/flox mice (6-8-week-old) to generate Alk1EC^iKO pups. Cre activity in Alk1EC^iKO was induced in pups at P3 via a single intraperitoneal (i.p.) injection of Tamoxifen (Tx; Sigma T5648, […] of 4 mg/ml, resuspended in 10% ethanol and 90% corn oil). Alk1^flox/flox littermates were used as controls. Alk1EC^iKO mice were crossed with Fucci2 mice to generate Alk1EC^iKO-Fucci2 pups.

VEGF-A signaling = test: VEGF-A-induced AKT phosphorylation in Alk1 siRNA-silenced HUVECs; type: cell-based, human; details: treated or not with Palbociclib
Source text: Next, we treated HUVECs with Alk1 siRNA to silence Alk1 and test the VEGF-A-induced response, with or without Palbociclib treatment, using pAKT activation as a readout.

[4] = test system: human umbilical vein endothelial cells; test: Proliferation of human umbilical vein endothelial cells assessed by EdU uptake; type: cell-based; details: in vitro, dose response
Source text: FIG. 16 illustrates palbociclib, CVT-313 and ribociclib dose response effects on proliferation of human umbilical vein endothelial cells assessed by EdU uptake.
This example discusses that endothelial cell cycle dysregulation is a mechanism involved in the development of arterio-venous malformations in HHT, as well as other types of vascular malformations named above. Palbociclib, a FDA-approved cell cycle inhibitor, could be used to prevent arterio-venous and other malformations, including venous, capillary, lymphatic and cerebral cavernous malformations.

[5] = test system: brain vascular anomalies in adult Alk1 mutant animals; test: Brain vasculature of adult Alk1 mutant animals (HHT model); type: in vivo, mouse; details: 3 doses 120 mg/kg oral gavage at day 7, 9 and 11 after tamoxifen, 3 weeks after induction
Source text: Euthanized animals have been perfused with colored reagent to visualize the blood vessels.

[6] = test system: retinal vascular development of control pups; test: CDK4/6i treatment alone in control C57BL/6 pups, retinal vasculature; type: in vivo, mouse; details: P7 control pups, no BMP9/10 Abs
Source text: FIGS. 10A and 10B illustrate the timeline used for CDK4/6i treatment alone in C57BL/6 pups and representative images showing retinal vasculature of P7 animals labelled with IB4 (N=3 to 4 animals/group). Vascular perfusion assessed using blue latex dye in lungs (FIGS. 10C-D), duodenum (FIGS. 10E-F) and brain (FIGS. 10G-H) from control, BMP9/10 Abs-treated, BMP9/10 Abs- and CDK4/6i-treated P7 animals. Lung samples have been clarified. Quantifications of intrapulmonary artery diameter (FIG. 10D) and intestinal capillary diameter (FIG. 10F). Red arrows indicate intestinal capillaries (N=3 to 7 animals/group. Data are mean±SEM, one-way ANOVA with Holm-Šidàk's multiple comparison test, **p≤0.01, *p≤0.05, ns p>0.05). Quantification of left middle cerebral artery (MCA) and basilar artery (BA) diameter (FIG. 10H). (N=5 to 9 animals/group. Data are mean±SEM, one-way ANOVA with Holm-Sidak's multiple comparison test, ns p>0.05). Scale bars: (FIGS. 10C and 10G): 2 mm, (E): 1 mm.
Thus, to test whether the use of pharmacological cell cycle modulators could prevent the development of AVMs in a murine model of HHT, we used Palbociclib, a CDK4 and CDK6 inhibitor (CDK4/6i) that blocks the transition from G1 to S state^8. Pups were injected at P2 and P4 with BMP9/10 antibodies, followed by Palbociclib treatment starting at P4, then at P5 and P6 (FIG. 2A).

For `CC(=O)c1c(C)c2cnc(Nc3ccc(N4CCNCC4)cn3)nc2n(C2CCCC2)c1=O` [Palbociclib, 6-acetyl-8-cyclopentyl-5-methyl-2-[5-(1-piperazinyl)pyridine-2-ylamino]pyrido[2,3-d]pyrimidin-7(8H)-one], the “vasodilation of small capillaries perfusing the duodenum” value ([1]; duodenum) was “not prevented by CDK4/6i treatment”, the “lung vascular anomalies and intrapulmonary artery diameter” value ([1]; lungs) was “significantly less vascular anomalies and intrapulmonary microvasculature vasodilation” and the “JAG1 protein expression in retinal arterial ECs” value ([2]; BMP9/10 Abs + CDK4/6i vs BMP9/10 Abs only) was “increased in arterial ECs”. For the same compound, the “ectopic arterial expression of ENDOMUCIN” value ([2]; BMP9/10 Abs + CDK4/6i) was “did not prevent the arterial expression of ENDOMUCIN”, the “smooth muscle cell (aSMA) coverage of retinal arteries” value ([2]; BMP9/10 Abs + CDK4/6i) was “prevented the loss of SMC coverage on arteries” and the “percentage of ECs residing in the S/G2/M phases” value ([3]; tamoxifen P3, Palbociclib P4, P5) was “significantly lower in arteries and capillaries”. For the same compound, the “proportion of ECs in late G1 state” value ([3]; arteries and capillaries) was “higher proportion of ECs in late G1 state”, the “cell cycle state of venous ECs” value ([3]; veins) was “no significant effects on venous ECs” and the “pAKT activation induced by VEGF-A in Alk1 silenced HUVECs” value (VEGF-A signaling) was “did not detect any differences”. The “EC proliferation assessed by EdU uptake” value [4] was “inhibit EC proliferation”, the “brain vascular anomalies in adult Alk1 mutant animals” value [5] was “regressed anomalies observed in the brain vasculature; also recorded: regressed brain vascular anomalies” and the “retinal vascular development under CDK4/6i treatment by itself” value [6] was “did not impair retinal vascular development”.
